In the NIST ThermoML archive (doi:10.1016/j.tca.2012.07.004):

Experiment: xn = mol fraction of the nth substance listed
Conditions: 101 kPa, Liquid; for mass density: Vibrating tube method; for viscosity: Vibrating wire viscometry; for speed of sound: ultrasonic interferometer

C[NH+](C)C.O=P([O-])(O)O [trimethylammonium dihydrogen phosphate] + CN1CCCC1=O
Conditions	mass density [kg/m3]	speed of sound [m/s]	viscosity [mPa·s]
298.15 K, x1 = 0.0201	1041.43	1573	2.89
298.15 K, x1 = 0.0391	1053.47	1586	6.08
298.15 K, x1 = 0.1028	1089.8	1610	13.47
298.15 K, x1 = 0.1462	1113.92	1626	18.44
298.15 K, x1 = 0.211	1148.18	1653	25.04
298.15 K, x1 = 0.3267	1196.88	1680	30.52
298.15 K, x1 = 0.3746	1213.72	1686	31.03
298.15 K, x1 = 0.4469	1236.58	1695	31.16
298.15 K, x1 = 0.5751	1270.11	1695	27.7
298.15 K, x1 = 0.7093	1297.11	1691	21.12
298.15 K, x1 = 0.852	1325.36	1673	12.99
298.15 K, x1 = 0.9413	1342.23	1665	8.68
298.15 K, x1 = 0.9719	1348.52	1665	7.48
298.15 K, x1 = 1	1353.61	1672	7.64
303.15 K, x1 = 0.0201	1034.74	1570	2.13
303.15 K, x1 = 0.0391	1045.35	1582	3.98
303.15 K, x1 = 0.1028	1081.42	1604	11.55
303.15 K, x1 = 0.1462	1104.62	1624	15.87
303.15 K, x1 = 0.211	1136.57	1644	21.79
303.15 K, x1 = 0.3267	1183.7	1671	26.64
303.15 K, x1 = 0.3746	1200.24	1679	27.3
303.15 K, x1 = 0.4469	1223.4	1692	26.98
303.15 K, x1 = 0.5751	1257.32	1692	24.1
303.15 K, x1 = 0.7093	1286.38	1690	18.07
303.15 K, x1 = 0.852	1317.91	1675	10.86
303.15 K, x1 = 0.9413	1337.6	1663	7.93
303.15 K, x1 = 0.9719	1344.48	1662	6.79
303.15 K, x1 = 1	1350.62	1660	6.46
308.15 K, x1 = 0.0201	1028.37	1550	1.54
308.15 K, x1 = 0.0391	1038.12	1564	2.3
308.15 K, x1 = 0.1028	1073.87	1587	8.69
308.15 K, x1 = 0.1462	1095.84	1606	11.98
308.15 K, x1 = 0.211	1126.55	1633	16.24
308.15 K, x1 = 0.3267	1173.1	1663	20.11
308.15 K, x1 = 0.3746	1189.72	1673	20.71
308.15 K, x1 = 0.4469	1213.08	1688	20.64
308.15 K, x1 = 0.5751	1248.1	1693	18.68
308.15 K, x1 = 0.7093	1279.47	1691	14.21
308.15 K, x1 = 0.852	1311.88	1685	8.83
308.15 K, x1 = 0.9413	1332.36	1675	7.25
308.15 K, x1 = 0.9719	1339.9	1673	6.6
308.15 K, x1 = 1	1347.59	1661	5.61
313.15 K, x1 = 0.0201	1023.28	1544	1.47
313.15 K, x1 = 0.0391	1031.97	1560	2.82
313.15 K, x1 = 0.1028	1065.17	1588	6.92
313.15 K, x1 = 0.1462	1086.37	1608	9.58
313.15 K, x1 = 0.211	1116.83	1637	12.74
313.15 K, x1 = 0.3267	1161.79	1672	16.43
313.15 K, x1 = 0.3746	1178.19	1684	16.55
313.15 K, x1 = 0.4469	1201.94	1702	16.53
313.15 K, x1 = 0.5751	1237.68	1708	15.2
313.15 K, x1 = 0.7093	1270.77	1704	11.9
313.15 K, x1 = 0.852	1305.61	1697	7.17
313.15 K, x1 = 0.9413	1327.25	1684	6.73
313.15 K, x1 = 0.9719	1335.1	1682	5.76
313.15 K, x1 = 1	1344.53	1664	5.07
